Entries after “also recorded” stand apart in the source; their conditions may differ.

One assay relates to GMC101 worms. As to the kind of experiment: Worm phenotypic assays in GMC101: mobility, paralysis and death score. The assay is classed as in vivo, C. elegans. Particulars: for fitness/healthspan and lifespan (mobility, paralysis, death): GMC101, mobility from day 1 of adulthood, paralysis and death at day 8, dox 15 μg/mL, AZD 300 nM. The method, then: Doxycycline was obtained from Sigma-Aldrich and dissolved in water. For experiments, a final concentration of 15 μg/mL was used. Olaparib (AZD2281) was dissolved in DMSO to experimental concentrations of 300 nM. Nicotinamide Riboside triflate (NR) was custom synthesized by Novalix (www.novalix-pharma.com/) and dissolved in water, and used at a final concentration of 1 mM. Compounds were added just before pouring the plates. For phenotyping experiments, parental F0 L4 worms were allowed to reach adulthood and lay eggs on the treatment plates. The deriving F1 worms were therefore exposed to compounds during the full life from eggs until death. For RNA analysis experiments, synchronized L1 worms were exposed to the compounds until harvest. To ensure a permanent exposure to the compound, plates were changed twice a week.
Mobility: C. elegans movement analysis was performed as described, starting from day 1 of adulthood, using the Movement Tracker software. The experiments were repeated at least twice.
Paralysis and death score: 5 L4 worms per condition were allowed to reach adulthood and lay eggs on the treatment plates. 45 to 60 deriving F1 worms per condition were manually scored for paralysis after poking, as already described. Worms that were unable to respond to any, repeated stimulation, were scored as dead. Results are representative of the data obtained in at least three independent experiments.
During the assays, animals were exposed to Myriocin (dissolved in DMSO) from the egg stage on plates seeded with live HT115 E. coli bacteria. Control plates seeded with the same bacteria were prepared with the corresponding concentrations of DMSO. The day of the experiment (day 1 of adulthood, 3 days after hatching), the GMC101 population was shifted to 25° C. in order to induce the amyloid deposition in the body wall muscle. ˜1000 worms were used for western blotting assays.
C. elegans movement analysis was performed as described (Mouchiroud et al., 2016), using the Movement Tracker software. ˜50 adult worms were used per condition for movement assays.
To score for paralysis and death, 50 worms per condition were manually scored after poking as described (McCool et al., 2012; Florez-McClure et al., 2007). Worms that were unable to respond to repeated stimulation were scored as dead.
During the assays, animals were exposed to the compound UA from egg stage on plates seeded with live HT115 E. coli bacteria. Control plates seeded with the same bacteria were prepared with the corresponding concentrations of DMSO (0.1%). The day of the experiment (day 1 of adulthood, 3 days after hatching), the GMC101 population was shifted to 25° C. in order to induce the amyloid deposition in the body wall muscle. ˜50 adult worms were used per conditions.
C. elegans movement analysis was performed as described in (Mouchiroud et al., 2016), using the Movement Tracker software within a period of 4 days.

In a further assay the test system is CL2122 worms. As to the kind of experiment: Transcript analysis of the MSR in CL2122 control worms. The assay is classed as in vivo, C. elegans. The following applies: CL2122, day 1 of adulthood; dox 15 μg/mL, NR 1 mM, AZD 0.3 μM. The method, then: C. elegans: A total of ˜3000 worms per condition, divided in 3 biological replicates, was recovered in M9 buffer from NGM plates and lysed in the TriPure RNA reagent. Each experiment was repeated twice. Total RNA was transcribed to cDNA using QuantiTect Reverse Transcription Kit (Qiagen). Expression of selected genes was analyzed using the LightCycler480 system (Roche) and LightCycler® 480 SYBR Green I Master reagent (Roche). For C. elegans, 2 housekeeping genes were used to normalize the expression data, namely actin (act-1) and peroxisomal membrane protein 3 (pmp-3).
atfs-1p::atfs-1 expression vector was created by amplifying 1488 bp sequence upstream from the transcription start site of atfs-1 coding region by using worm genomic DNA for the promoter region. […] The correctness of the atfs-1p::atfs-1 construct was assessed by sequencing with the indicated pPD30.38 and atfs-1 seq. primers. Two independent GMC101 lines (AUW9 and AUW10), and one CL2122 strain (AUW11) carrying atfs-1p::atfs-1 transgene as extrachromosomal array were analyzed in the study. […] The deriving F1 worms were shifted from 20° C. to 25° C. at the L4 stage to induce amyloid accumulation and paralysis, and phenotypes assessed over time as indicated. […]

For the molecule `O=C(c1cc(Cc2n[nH]c(=O)c3ccccc23)ccc1F)N1CCN(C(=O)C2CC2)CC1` [AZD, Olaparib, reference compound], the “fitness/healthspan and lifespan (mobility, paralysis, death)” value with GMC101 worms (NR 1 mM) was “improved healthspan and lifespan”. In addition, the “MSR transcripts in control strain” value with CL2122 worms is given as “induction of the MSR was also consistently observed”.

In the case of `NC(=O)c1ccc[n+]([C@@H]2O[C@H](CO)[C@@H](O)[C@H]2O)c1` [NR, Nicotinamide Riboside triflate], the “fitness/healthspan and lifespan (mobility, paralysis, death)” value in the assay on GMC101 worms (NR 1 mM) was “improved healthspan and lifespan”. Besides, in the assay with GMC101 worms (GMC101 fed with sir-2.1 RNAi, NR 1 mM), the “health- and life-span upon sir-2.1 RNAi” value was “still significantly rescued health- and life-span”. Moreover, the “dependence of motility and Aβ clearance benefits on atfs-1” value in the assay with GMC101 worms (GMC101 upon atfs-1 RNAi feeding) was “required”. Further, the “dependence of health-, lifespan and proteostasis benefits on dct-1” value in the assay on GMC101 worms (GMC101 upon dct-1 RNAi feeding) is recorded as “required”. The “MSR transcripts in control strain” value with CL2122 worms was “induction of the MSR was also consistently observed”.

Turning to `CCCCCCC(=O)CCCCCC/C=C/C[C@@H](O)[C@H](O)[C@@](N)(CO)C(=O)O` [Myriocin, (E,2S,3R,4R)-2-amino-3,4-dihydroxy-2-(hydroxymethyl)-14-oxoicos-6-enoic acid], in the assay with GMC101 worms (GMC101, day 4 of adulthood, Myriocin 10 uM), the “paralysis and death (survival)” value is “decreased both paralysis and death; also recorded: improves the paralysis score and survival”. For the same molecule, the “spontaneous movement (mobility)” value in the assay with GMC101 worms (GMC101, period of 4 days, Myriocin 10 uM) is recorded as “increased the mobility; also recorded: increase in spontaneous movement”.

The values above are taken from patent US20220110902A1, “Methods of treating amyloid-beta peptide diseases” (Ecole Polytechnique Federale de Lausanne, priority 2016, published 2022).
